{
  "source": "patent US9957236B2",
  "about": "“Selective inhibitors interfering with fibroblast growth factor receptor and FRS2 interaction for the prevention and treatment of cancer and other diseases” (LIMITED LIABILITY COMPANY “RUSSIAN PHARMACEUTICAL …, priority 2014, dated 2018)",
  "key": {"[1]": {"tested_on": "Mel Kor metastatic melanoma cells", "assay": "Crystal Violet proliferation assay, Mel Kor", "assay_type": "cell-based", "conditions": "hardly expressed FGFR2, bFGF 100 ng/ml, 7 days", "text": "This research used additional cell lines: SKOV3 (ovarian cancer, ATCC # HTB-77), HS578T (breast cancer, ATCC # HTB-126), T47D (breast cancer, ATCC #HTB-1336), modified line of non-small cells lung cancer A549, line of metastatic melanoma of skin Mel Kor (RF Patent No. 2287578), and additional study of antiangiogenic activity—cell line SVEC-4-10 (endothelial cells, ATCC #CRL-2181).\nThe cells were cultivated in environment RPMI-1640 (PANECO) (SKOV3, HS578T, T47D, Mel-Kor) or DMEM (PANECO) (SVEC-4-10) containing 10% of embryonal serum cattle (FCS, HyClone), 2 mM glutamine (PANECO), antibiotics (100 IU/mL penicillin and […] streptomycin (all PANECO)) at 37° C. and 5% CO2. Cells at 70-80% monolayer were used for the experiments.\nThe cells were planted in low density (30 t of cells/ml) in triplets on a 96-cavity plate in an environment containing 0.1% of FCS serum. […] Growth of cells was determined by the modified “Crystal Violet mitogenic method” for 7 days after the experiment start. […] The dye was dissolved in ethanol and measured on a spectrophotometer at 540-560 nm. The curve of cell proliferative activity inhibition was built by the dependence of the percent of the cell quantity (Y axis) on concentration of inhibitor RPT835 in the cavity of the plate (X axis). […]"}, "[2]": {"tested_on": "human ovarian cancer SKOV-3", "assay": "Pathomorphosis of SKOV-3 ovarian tumor in nude mice", "assay_type": "in vivo", "conditions": "SKOV-3 in nude mice", "method": "Immunodefficient mice (Nude, age of the mice as of the treatment start is 8 weeks; nursery “Pushchino”) were subcutaneously inoculated cells of FGFR2 of expressing line of human ovarian cancer SKOV-3. When the average tumor volume of 200 mm3 was achieved, the mice were randomized into the groups of control (standard chemotherapy with paclitaxel and caroplatin) and treatment (inhibitor RPT835). There were 10 mice in each group. Inhibitor RPT835 was assigned in a dose of 50 mg/kg, daily. The tumor volume was measured twice a week. When the tumor volume reached 2,000 mm3, the mice were subjected to euthanasia. Pathomorphosis of the tumor tissue was studied."}, "[3]": {"tested_on": "angiogenesis stimulated by bFGF", "assay": "Matrigel implant angiogenesis stimulated by bFGF", "assay_type": "in vivo, mice", "method": "Eighteen hybrid mice of the 1 generation F1 (C57B1/6×DBA/2), males with a weight of 22-30 g are used in the research. The mice (nomenclature number M02.13.00011) were received from a branch of nursery “Stolbovaya”. The method described earlier was used in the experiment [Passaniti A., 1992]. The control and experiment groups had at least 3 mice. Aliquots (1,000 mcl) of Matrigel (BD Biosciences) containing heparin 60 conventional units/ml, VEGF (200 ng/ml, BD Biosciences) or bFGF (100 ng/ml, BD Biosciences) were prepared on ice. Matrigel containing heparin 60 conventional units/ml was used as negative control. Matrigel was injected in the mice subcutaneously into the side part of the back. After injection, Matrigel quickly forms single, hard gel-like implant. A weight of the inhibitor was dissolved in DMSO to concentration of 10^−2M. Aliquots were frozen down to −20° C. and unfrozen immediately before injection. Refreezing of the solution was not allowed. The tested and standard objects were administered intraperitoneally on the 0, 3 and 6 day of Matrigel impintation: Bevacizumab in a dose of 10 mg/kg and RPT835-15 mg/kg. Seven days after administration of Matrigel, the mice were put into sleep with diethyl ether to remove the implant. The implants were fixed for 24-36 hours in 10% neutral formalin and enclosed in paraffin for further histological research."}, "[4]": {"conditions": "in vivo", "text": "Besides, acute toxicity of inhibitor RPT835 was studied in the following volume in a separate research: • Acute toxicity of the medicine was researched. […] The state of the animals after acute administration testifies of good tolerability of the medicine in doses exceeding the maximal therapeutic ones (about 4.3 mcg/kg) tens—hundreds of times. […]"}, "[5]": {"assay": "Toxicity assessment in the in vivo studies of Example 13", "conditions": "nude mice, 30 mg/kg daily through a stomach tube", "method": "Toxicity of inhibitor RPT835 was assessed in in vivo studies described in Example 13. According to the standard procedure, all undesirable events were assessed, as well as loss of weight by animals, when the inhibitor is used compared to the control group."}, "HUVEC": {"tested_on": "HUVEC", "assay": "Proliferation of endothelial cells HUVEC with FGF-2", "assay_type": "cell-based", "conditions": "Homo sapiens, FGF-2 25 ng/ml, 96 hours, read-out: Cell growth suppression, IC50", "method": "Endothelial cells HUVEC were sawn in 96-cavity plates and cultivate for 24 hours. After that, the following was added to the cells: • 1) inhibitor RPT835, or • 2) inhibitor described by Formula IX in this invention, or • 3) brivanib—multi-kinase inhibitor of FGFR/VEGFR, and also to all cells—FGF-2 in a concentration of 25 ng/ml.\nThe cells were cultivated for 96 hours in general and then were calculated."}, "[6]": {"conditions": "Matrigel + bFGF, 15 mg/kg intraperitoneally day 0, 3, 6, p<0.001"}},
  "data": [
    {"smiles": "Cc1cc([N+](=O)[O-])c(NS(=O)(=O)c2cccc(C(=O)O)c2)cc1-c1cccnc1", "note": "[RPT835, 3-(N-(4-methyl-2-nitro-5-(pyridin-3-yl)phenyl)sulfamoyl)benzoic acid]", "values": [
      {"measurement": "inhibition of proliferative activity", "setting": "[1]", "result": "did not block"},
      {"measurement": "part of the tumor represented by massive necroses", "setting": "[2]; 50 mg/kg daily", "result": "over 75%"},
      {"measurement": "pathomorphosis of the tumor tissue", "setting": "[2]; RPT835 50 mg/kg daily, control standard chemotherapy with paclitaxel and caroplatin", "result": "Pronounced therapeutic pathomorphosis"},
      {"measurement": "decrease of number of functional micro-vessels compared to the control group", "setting": "[3]; [6]", "result": "more than 2 fold"},
      {"measurement": "decrease of number of migrated cells compared to the control group", "setting": "[3]; [6]", "result": "more than 2 fold"},
      {"measurement": "decrease of number of tubular structures compared to the control group", "setting": "[3]; Matrigel + bFGF, 15 mg/kg intraperitoneally day 0, 3, 6, p=0.016", "result": "more than 2 fold"},
      {"measurement": "angiogenesis stimulated by bFGF", "setting": "[3]; Matrigel implants in mice, intraperitoneally day 0, 3, 6, RPT835 15 mg/kg, Bevacizumab 10 mg/kg", "result": "effectively inhibited"},
      {"measurement": "irritating effect on the mucous membrane of the gastrointestinal tract", "setting": "[4]", "result": "does not have an irritating effect"},
      {"measurement": "weight loss and undesirable side effects of the therapy", "setting": "[5]", "result": "Neither weight loss, nor any undesirable side effects"},
      {"measurement": "IC50", "setting": "HUVEC", "result": 11, "unit": "nM"}
    ]}
  ]
}
